Laboratory results reported in ChEMBL document CHEMBL4680313 (Bioorg Med Chem, 2021).
Values joined by “and” are separate entries in the source; they are usually repeats but may differ in a detail not shown here. Identical values can stand only once.

Assays:
D(2) dopamine receptor [1] = target: T1, D(2) dopamine receptor (Homo sapiens, UniProt P14416)
D(3) dopamine receptor [2] = target: T2, D(3) dopamine receptor (Homo sapiens, UniProt P35462)
D(4) dopamine receptor = target: T3, D(4) dopamine receptor (Homo sapiens, UniProt P21917)
T3 sequence (P21917 whole entry): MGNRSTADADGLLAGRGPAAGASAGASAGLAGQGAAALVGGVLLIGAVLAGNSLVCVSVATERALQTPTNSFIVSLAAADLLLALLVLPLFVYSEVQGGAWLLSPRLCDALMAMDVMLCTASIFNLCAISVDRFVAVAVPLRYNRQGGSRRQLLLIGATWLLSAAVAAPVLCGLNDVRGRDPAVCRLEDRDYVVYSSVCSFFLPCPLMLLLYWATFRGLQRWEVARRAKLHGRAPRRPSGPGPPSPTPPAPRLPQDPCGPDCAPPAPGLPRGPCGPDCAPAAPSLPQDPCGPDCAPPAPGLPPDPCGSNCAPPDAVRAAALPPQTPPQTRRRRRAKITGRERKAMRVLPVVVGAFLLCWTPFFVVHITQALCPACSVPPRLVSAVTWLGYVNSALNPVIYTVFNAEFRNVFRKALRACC

[3] = target: T4, 5-hydroxytryptamine receptor 1A (Homo sapiens, UniProt P08908)
T4 sequence (P08908 whole entry): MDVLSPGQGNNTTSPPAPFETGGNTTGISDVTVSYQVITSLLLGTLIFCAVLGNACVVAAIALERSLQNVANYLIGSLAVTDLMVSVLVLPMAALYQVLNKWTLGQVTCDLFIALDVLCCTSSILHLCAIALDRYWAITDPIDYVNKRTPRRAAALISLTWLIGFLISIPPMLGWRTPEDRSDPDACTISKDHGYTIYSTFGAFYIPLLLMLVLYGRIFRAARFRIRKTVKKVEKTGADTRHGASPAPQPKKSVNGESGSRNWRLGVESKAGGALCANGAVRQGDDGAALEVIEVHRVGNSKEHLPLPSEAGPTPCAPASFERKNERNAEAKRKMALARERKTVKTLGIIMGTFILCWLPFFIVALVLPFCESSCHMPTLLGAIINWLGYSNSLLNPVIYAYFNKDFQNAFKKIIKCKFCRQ

[4] = target: T5, 5-hydroxytryptamine receptor 2A (Homo sapiens, UniProt P28223)
[5] = target: T6, 5-hydroxytryptamine receptor 2C (Homo sapiens, UniProt P28335)
T6 sequence (P28335 whole entry): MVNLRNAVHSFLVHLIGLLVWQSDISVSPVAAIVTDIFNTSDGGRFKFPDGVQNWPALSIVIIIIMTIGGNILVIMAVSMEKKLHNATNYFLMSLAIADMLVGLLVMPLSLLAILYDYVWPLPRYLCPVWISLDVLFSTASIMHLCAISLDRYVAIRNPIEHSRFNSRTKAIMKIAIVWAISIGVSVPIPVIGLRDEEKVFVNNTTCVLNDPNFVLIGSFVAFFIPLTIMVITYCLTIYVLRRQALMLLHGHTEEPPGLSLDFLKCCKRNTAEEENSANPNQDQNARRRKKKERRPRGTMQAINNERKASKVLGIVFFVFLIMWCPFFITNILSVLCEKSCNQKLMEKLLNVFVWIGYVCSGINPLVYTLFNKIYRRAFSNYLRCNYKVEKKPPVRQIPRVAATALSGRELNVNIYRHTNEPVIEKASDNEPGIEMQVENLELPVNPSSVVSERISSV

[6] = target: T7, 5-hydroxytryptamine receptor 7 (Homo sapiens, UniProt P34969)
Description: Displacement of [3H]-LSD from human 5HT7 receptor by liquid scintillation counting

[7] = target: Sodium-dependent serotonin transporter (Homo sapiens, UniProt P31645)
Description: Displacement of [3H]-citalopram from human SERT by liquid scintillation counting

[8] = target: T8, 5-hydroxytryptamine receptor 2C (Homo sapiens) (UniProt P28335); test: Displacement of [3H]-mesulergine from human 5HT2C receptor at 10 uM by liquid scintillation counting
T8 sequence (whole entry): T6 sequence (P28335 whole entry)

D(2) dopamine receptor [9] = target: T1, D(2) dopamine receptor; test: Displacement of [3H]-N-methylspiperone from human dopamine D2 receptor at 10 uM by liquid scintillation counting
D(3) dopamine receptor [10] = target: T2, D(3) dopamine receptor; test: Displacement of [3H]-N-methylspiperone from human dopamine D3 receptor at 10 uM by liquid scintillation counting
[11] = target: T9, 5-hydroxytryptamine receptor 1A (Homo sapiens) (UniProt P08908); test: Displacement of [3H]-8-OH-DPAT from human 5HT1A receptor at 10 uM by liquid scintillation counting
T9 sequence (whole entry): T4 sequence (P08908 whole entry)

[12] = target: T5, 5-hydroxytryptamine receptor 2A; test: Displacement of [3H]-mesulergine from human 5HT2A receptor at 10 uM by liquid scintillation counting
[13] = target: T7, 5-hydroxytryptamine receptor 7; test: Displacement of [3H]-LSD from human 5HT7 receptor at 10 uM by liquid scintillation counting

T2 sequence (P35462 whole entry): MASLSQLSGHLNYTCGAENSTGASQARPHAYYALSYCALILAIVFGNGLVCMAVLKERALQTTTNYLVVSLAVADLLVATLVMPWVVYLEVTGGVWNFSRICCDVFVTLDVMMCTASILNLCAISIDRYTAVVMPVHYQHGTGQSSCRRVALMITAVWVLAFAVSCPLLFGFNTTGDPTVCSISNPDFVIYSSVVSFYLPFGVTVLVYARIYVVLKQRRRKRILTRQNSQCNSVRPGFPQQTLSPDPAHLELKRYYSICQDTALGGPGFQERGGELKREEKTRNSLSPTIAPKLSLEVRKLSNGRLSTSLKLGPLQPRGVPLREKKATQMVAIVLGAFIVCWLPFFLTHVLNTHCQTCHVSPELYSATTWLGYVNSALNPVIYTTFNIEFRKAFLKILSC
T5 sequence (P28223 whole entry): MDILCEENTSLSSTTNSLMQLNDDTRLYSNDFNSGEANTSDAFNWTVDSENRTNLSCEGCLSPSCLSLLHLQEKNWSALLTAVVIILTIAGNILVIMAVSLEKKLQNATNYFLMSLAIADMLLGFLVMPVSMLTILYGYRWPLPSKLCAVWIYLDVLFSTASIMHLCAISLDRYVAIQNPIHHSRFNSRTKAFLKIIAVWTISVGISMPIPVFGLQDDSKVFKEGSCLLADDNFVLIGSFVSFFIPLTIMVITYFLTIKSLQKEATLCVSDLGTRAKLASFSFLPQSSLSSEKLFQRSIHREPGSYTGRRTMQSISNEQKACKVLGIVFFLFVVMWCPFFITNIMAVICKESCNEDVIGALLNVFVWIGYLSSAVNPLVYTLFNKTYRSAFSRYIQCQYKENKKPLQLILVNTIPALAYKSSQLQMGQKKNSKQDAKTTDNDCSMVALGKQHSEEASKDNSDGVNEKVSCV
Sodium-dependent serotonin transporter, sequence (P31645 whole entry): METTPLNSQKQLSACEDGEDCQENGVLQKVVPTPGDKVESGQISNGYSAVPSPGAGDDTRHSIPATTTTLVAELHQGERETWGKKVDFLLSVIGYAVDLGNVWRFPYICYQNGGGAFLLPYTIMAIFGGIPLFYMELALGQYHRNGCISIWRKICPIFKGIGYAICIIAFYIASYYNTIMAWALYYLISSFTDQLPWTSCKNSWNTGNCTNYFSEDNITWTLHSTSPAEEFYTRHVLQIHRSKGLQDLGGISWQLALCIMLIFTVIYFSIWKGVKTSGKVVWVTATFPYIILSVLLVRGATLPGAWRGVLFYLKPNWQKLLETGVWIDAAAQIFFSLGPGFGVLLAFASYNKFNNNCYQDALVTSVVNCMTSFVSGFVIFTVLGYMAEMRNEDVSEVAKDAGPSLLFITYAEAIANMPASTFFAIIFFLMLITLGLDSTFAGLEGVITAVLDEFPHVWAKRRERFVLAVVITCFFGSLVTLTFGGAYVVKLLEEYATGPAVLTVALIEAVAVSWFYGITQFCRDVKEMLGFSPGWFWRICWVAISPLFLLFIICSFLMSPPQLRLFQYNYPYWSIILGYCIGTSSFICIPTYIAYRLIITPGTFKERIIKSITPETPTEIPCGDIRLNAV
T1 sequence (P14416 whole entry): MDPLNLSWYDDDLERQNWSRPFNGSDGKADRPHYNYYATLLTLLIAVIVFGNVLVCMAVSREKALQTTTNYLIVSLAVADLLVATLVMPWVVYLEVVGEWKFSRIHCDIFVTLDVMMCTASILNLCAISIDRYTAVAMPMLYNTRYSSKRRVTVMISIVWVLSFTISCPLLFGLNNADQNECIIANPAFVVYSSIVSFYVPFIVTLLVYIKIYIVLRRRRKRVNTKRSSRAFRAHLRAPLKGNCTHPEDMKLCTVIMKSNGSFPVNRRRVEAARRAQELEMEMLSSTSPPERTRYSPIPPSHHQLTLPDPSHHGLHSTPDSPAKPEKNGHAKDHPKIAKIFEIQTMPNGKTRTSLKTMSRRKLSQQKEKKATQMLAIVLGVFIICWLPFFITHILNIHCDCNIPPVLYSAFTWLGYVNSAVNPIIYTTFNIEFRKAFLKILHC
T7 sequence (P34969 whole entry): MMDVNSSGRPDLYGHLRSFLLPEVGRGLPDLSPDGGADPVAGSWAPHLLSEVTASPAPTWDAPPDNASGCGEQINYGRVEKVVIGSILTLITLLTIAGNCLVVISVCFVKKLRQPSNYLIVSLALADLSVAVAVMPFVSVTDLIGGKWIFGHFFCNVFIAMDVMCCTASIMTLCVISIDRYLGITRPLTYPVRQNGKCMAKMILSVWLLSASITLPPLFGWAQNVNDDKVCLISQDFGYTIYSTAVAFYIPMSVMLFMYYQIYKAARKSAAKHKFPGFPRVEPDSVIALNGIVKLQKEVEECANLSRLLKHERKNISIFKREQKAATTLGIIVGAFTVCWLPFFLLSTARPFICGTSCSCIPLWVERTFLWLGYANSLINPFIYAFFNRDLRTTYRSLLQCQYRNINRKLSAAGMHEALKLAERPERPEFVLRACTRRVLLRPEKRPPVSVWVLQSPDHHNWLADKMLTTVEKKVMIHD

In the case of `O=C(CCCN1CCCN(c2ccc(Cl)cn2)CC1)c1ccc(F)cc1`, the Ki (D(2) dopamine receptor [1]) is reported as 41 nM, the Ki (D(3) dopamine receptor [2]) is reported as 26 nM and the Ki (D(4) dopamine receptor) is reported as 37 nM. It also gave a Ki [3] of 259 nM, a Ki [4] of 8.9 nM and a Ki [5] of 392 nM. It also gave a Ki [6] of 214 nM and a Ki [7] of 37 nM.
`O=C(CCCN1CCN(c2cccnc2)CC1)c1ccc(F)cc1` showed an inhibition [8] of 50%, a Ki (D(2) dopamine receptor [1]) of 1170 nM and a Ki (D(3) dopamine receptor [2]) of 140 nM. It also gave a Ki (D(4) dopamine receptor) of 30 nM, a Ki [3] of 97 nM and a Ki [4] of 305 nM. For the same compound, the Ki [6] was 147 nM and 135 nM.
With `Fc1ccc(CCCCN2CCN(c3ccc(-c4ccccc4)cn3)CC2)cc1` the Ki (D(2) dopamine receptor [1]) was > 10000 nM, the Ki (D(3) dopamine receptor [2]) was 2090 nM and the Ki (D(4) dopamine receptor) was 2260 nM. For the same compound, the Ki [3] was 1460 nM, the Ki [4] was 147 nM and the Ki [5] was > 10000 nM. The Ki [6] was > 10000 nM and the Ki [7] was 2670 nM.
For `O=C1c2ccc(F)cc2CC1CCN1CCCN(c2ccc(Cl)cn2)CC1` (stereo not drawn), the Ki (D(2) dopamine receptor [1]) was 364 nM, the Ki (D(3) dopamine receptor [2]) was 125 nM and the Ki (D(4) dopamine receptor) was 36 nM. It also gave a Ki [3] of 209 nM, a Ki [4] of 13 nM and a Ki [5] of 355 nM. The Ki [6] was 58 nM and the Ki [7] was 24 nM.
`Fc1ccc(CCCCN2CCN(c3cccc(-c4ccccc4)n3)CC2)cc1` gave a Ki (D(2) dopamine receptor [1]) of 641 nM, a Ki (D(3) dopamine receptor [2]) of 58 nM and a Ki (D(4) dopamine receptor) of 84 nM. For the same compound, the Ki [3] was 155 nM, the Ki [4] was 261 nM and the Ki [5] was 2960 nM. For the same compound, the Ki [6] was 160 nM and the Ki [7] was > 10000 nM.
Compound `O=C(CCCN1CCCN(c2ccccn2)CC1)c1ccc(F)cc1` has a Ki (D(2) dopamine receptor [1]) of 181 nM, a Ki (D(3) dopamine receptor [2]) of 3450 nM and a Ki (D(4) dopamine receptor) of 257 nM. For the same compound, the Ki [3] was 1960 nM and 1910 nM, the Ki [4] was 1.2 nM and the Ki [5] was 337 nM. For the same compound, the Ki [6] was 569 nM and 1550 nM.
For `Cc1ccc(N2CCN(CCCCc3ccc(F)cc3)CC2)nc1`, the Ki [3] was 92 nM, the Ki [5] was 1610 nM and the Ki [6] was 60 nM. It also gave a Ki [7] of 2990 nM.
Work on `O=C(CCCN1C2CCC1CN(c1ccc(Cl)cn1)C2)c1ccc(F)cc1` yielded a Ki (D(2) dopamine receptor [1]) of 1250 nM, a Ki (D(3) dopamine receptor [2]) of 1010 nM and a Ki (D(4) dopamine receptor) of 119 nM. The Ki [3] was 78 nM, the Ki [4] was 51 nM and the Ki [5] was 1360 nM. It also gave a Ki [6] of 335 nM and a Ki [7] of 241 nM.
`Fc1ccc(CCCCN2CCN(c3cccnc3)CC2)cc1` gave an inhibition (D(2) dopamine receptor [9]) of 50%, an inhibition [8] of 50% and a Ki (D(4) dopamine receptor) of 16 nM. For the same compound, the Ki [3] was 18 nM, the Ki [4] was 338 nM and the Ki [6] was 267 nM.
`O=C1c2ccc(F)cc2CC1CCN1CCCN(c2ccccn2)CC1` (stereo not drawn) gave an inhibition [8] of 50%, a Ki (D(2) dopamine receptor [1]) of 649 nM and a Ki (D(3) dopamine receptor [2]) of 2290 nM. It also gave a Ki (D(4) dopamine receptor) of 191 nM, a Ki [3] of 886 nM and a Ki [4] of 59 nM. For the same compound, the Ki [6] was 58 nM and the Ki [7] was 949 nM and 933 nM.
For `Fc1ccc(CCCCN2CCN(c3ccccn3)CC2)cc1`, the inhibition [8] was 50%.
`Fc1ccc(CCCCN2C3CCC2CN(c2ccc(Cl)cn2)C3)cc1` showed an inhibition (D(2) dopamine receptor [9]) of 50%, an inhibition [8] of 50% and a Ki (D(3) dopamine receptor [2]) of 840 nM. The Ki (D(4) dopamine receptor) was 44 nM, the Ki [3] was 94.2 nM and the Ki [4] was 94 nM. It also gave a Ki [6] of 339 nM and a Ki [7] of 158 nM.
`Fc1ccc2c(c1)CC(CCN1CCCN(c3ccccn3)CC1)C2` (stereo not drawn) was tested, and the Ki (D(2) dopamine receptor [1]) was 599 nM, the Ki (D(3) dopamine receptor [2]) was 774 nM and the Ki (D(4) dopamine receptor) was 104 nM. The Ki [3] was 615 nM and 589 nM, the Ki [4] was 43 nM and the Ki [5] was 963 nM. For the same compound, the Ki [6] was 267 nM and the Ki [7] was 64 nM.
In the case of `O=C1c2ccc(F)cc2CC1CCN1CCCN(c2ccc(Cl)cc2)CC1` (stereo not drawn), the Ki [6] is reported as 72 nM and the Ki [7] is reported as 24 nM.
With `Fc1ccc(CCCCN2CCN(c3ccncc3)CC2)cc1` the inhibition (D(2) dopamine receptor [9]) was 50%, the inhibition (D(3) dopamine receptor [10]) was 50% and the inhibition [11] was 50%. It also gave an inhibition [12] of 50%, an inhibition [8] of 50% and an inhibition [13] of 50%. It also gave a Ki (D(4) dopamine receptor) of 2050 nM.
